Data: PubChem BioAssay (NCI)
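In this assay, cells in 96-well plates receive the compound at five concentrations for 48 hours. Endpoints are linearly interpolated between the surrounding concentrations. Here, GI50 denotes the concentration required for 50% inhibition of growth. At the TGI there is no net growth.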

How the values were obtained:
Assay in all cases: inhibition of tumour cell growth, NCI panel, 48 h
[1] = tested on: ACHN renal
[2] = tested on: HCT-15 colon
[3] = tested on: HT29 colon
[4] = tested on: K-562 leukemia
[5] = tested on: M14 melanoma
[6] = tested on: NCI-H460 lung
[7] = tested on: OVCAR-5 ovarian
[8] = tested on: OVCAR-8 ovarian
[9] = tested on: RXF 393 renal
[10] = tested on: SW-620 colon

Row | SMILES | GI50 [1] [µM] | TGI [1] [µM] | GI50 [2] [µM] | TGI [2] [µM] | GI50 [3] [µM] | TGI [3] [µM] | GI50 [4] [µM] | TGI [4] [µM] | GI50 [5] [µM] | TGI [5] [µM] | GI50 [6] [µM] | TGI [6] [µM] | GI50 [7] [µM] | TGI [7] [µM] | GI50 [8] [µM] | TGI [8] [µM] | GI50 [9] [µM] | TGI [9] [µM] | GI50 [10] [µM] | TGI [10] [µM]
1 | O=C(Nc1cnc(C(F)(F)F)cn1)c1cc(Cl)ccc1O | 0.269 | 1.16 | 0.307 | 3.24 | 2.56 | > 100 | 0.272 | > 100 | 0.306 | 2.46 | 0.332 | 15.2 | 0.343 | > 100 | 0.365 | 61.8 | 0.318 | 0.922 | 0.348 | > 100
2 | CCSc1nc(N)c(C#N)c(-c2ccco2)c1C#N | 16.9 | 69.2 | 28.4 | > 100 | 56.4 | > 100 | 43.7 | > 100 | 48.1 | > 100 | 33.5 | > 100 | > 100 | > 100 | 53.6 | > 100 | 56.4 | > 100 | 42.2 | > 100
3 | O=S(=O)(NC1=NCCN1C(=S)SN1CCn2c1nsc2=S)c1cccc(OC(F)(F)F)c1 | 13.5 | 26.3 | 10.5 | 22.4 | 6.91 | 26.4 | 4.47 | > 100 | 13 | 28.1 | 13.4 | 41.4 | 16.4 | 30 | 11 | 65.1 | 2.42 | 6 | 6.7 | > 100
4 | CCN(CC)CCCC(C)Nc1c(-c2ccccc2)cnc2cc(Cl)ccc12 (stereo not given) | 13 | 36.6 | 3.62 | 13.6 | 2.74 | 11.5 | 3.2 | 32 | 1.86 | 3.44 | 6.99 | 19.8 | 10.5 | 27 | 11.9 | 32.3 | 3.36 | 11.1 | 9.04 | 22.8
5 | Nc1n[nH]c(N)c1N=Nc1ccc(O)cc1 | 15.6 | 61.1 | 24.2 | 90.6 | 29.7 | > 100 | 9.17 | > 100 | 15.9 | > 100 | 25.1 | 97.2 | 23.5 | > 100 | 18 | > 100 | 18.4 | 43.9 | 26.3 | 84.8
6 | Cc1cccc2c(Nc3ccc(NS(C)(=O)=O)cc3)c3ccc([N+](=O)[O-])cc3nc12 | 0.661 | 4.13 | 1.19 | 3.54 | 1.59 | 3.47 | 2.04 | 14 | 0.808 | 3.4 | 0.0234 | 1.76 | 3.95 | 21.1 | 1.3 | 6.42 | 1.38 | 3.1 | 0.87 | 3.23
7 | CC(=O)NNc1nc(C)c(C(=O)/C=C/c2ccc(/C=C/C(=O)c3sc(NNC(C)=O)nc3C)cc2)s1 | – | > 100 | – | > 100 | – | > 100 | – | > 100 | – | > 100 | – | > 100 | – | > 100 | – | > 100 | – | > 100 | – | > 100
8 | N#CC(C#N)=C(N)/C(C#N)=C/c1ccc2[nH]ccc2c1 | – | > 100 | – | > 100 | – | > 100 | – | > 100 | – | > 100 | – | > 100 | – | > 100 | – | > 100 | – | > 100 | – | > 100
9 | NC(=O)c1cccc(-c2cc(C(N)=O)ccc2Cl)c1 | 6.46 | > 100 | 0.846 | > 100 | 1.19 | > 100 | 0.36 | > 100 | – | – | 12.2 | 54 | 4.11 | > 100 | 4.32 | > 100 | 2.11 | 5.26 | 2.14 | > 100
10 | CC(C)=Nn1cnc(C(=N)C#N)c1N | – | > 100 | – | > 100 | – | > 100 | – | > 100 | – | > 100 | – | > 100 | – | > 100 | – | > 100 | – | > 100 | – | > 100
11 | [N-]=[N+]=NC[C@H]1OCO[C@H](CN=[N+]=[N-])[C@H]2OCCOCCOc3ccccc3OCCOCCO[C@@H]21 | – | – | – | > 100 | – | > 100 | – | > 100 | – | > 100 | – | > 100 | – | – | – | > 100 | – | > 100 | – | > 100
12 | COC(=O)/C(C#N)=C1\CCc2ccccc21 | – | > 100 | – | > 100 | – | > 100 | – | > 100 | – | > 100 | – | > 100 | – | > 100 | – | > 100 | – | > 100 | – | > 100
13 | CCCCc1c2c(nc3c1CCc1cc4cc5c(nc4nc1-3)-c1nc3c(c(CCCC)c1CC5)CCC/C3=C\c1ccccc1)/C(=C/c1ccccc1)CCC2 | – | > 100 | – | > 100 | – | > 100 | – | > 100 | – | > 100 | – | > 100 | – | – | – | > 100 | – | > 100 | – | > 100
14 | CC1=C(Cl)C[C@@H](/C(C)=C\Cl)O[C@@]1(O)C(Br)Br | – | 75 | – | 32.4 | – | > 100 | – | > 100 | – | 67.7 | – | > 100 | – | 44.2 | – | > 100 | – | 62.2 | – | > 100
15 | Cc1ccc(N=C2SC(c3ccc(C)cc3)(c3ccc(C)cc3)c3ccccc32)cc1 | – | > 100 | – | > 100 | – | > 100 | – | > 100 | – | > 100 | – | > 100 | – | > 100 | – | > 100 | – | > 100 | – | > 100
16 | CCOP(=O)(OCC)C1(O)CC(n2cc(C)c(=O)[nH]c2=O)OC1CO (stereo not given) | – | > 100 | – | > 100 | – | > 100 | – | > 100 | – | > 100 | – | > 100 | – | > 100 | – | > 100 | – | > 100 | – | > 100
